From patent US20250049812A1, “Compounds that Inhibit Necroptosis and Their Preparation Methods” (SHANGHAI INSTITUTE OF ORGANIC CHEMISTRY, CHINESE ACADEMY OF …, priority 2021, published 2025) come the findings set out here.

The first assay concerns Jurkat FADD (−/−) Cells. The experiment in a line: TNF-α induced necroptosis of Jurkat FADD-deficient cells (CellTiter-Glo cell survival). The note with it: Homo sapiens, Jurkat, 13 h. It counts as cell-based, human. In a few lines:
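Cells in RPMI 1640 with 10% FBS were pretreated for 1 h at 37 °C with compound (12-point threefold series from 25 μM, or 0.5 μM, in triplicate). They were then stimulated with TNFα added as a 5 ng/mL solution for 13 h. Survival was read by luminescence.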
Background: Cellular ATP, detected with luciferase, serves as a proxy for viable cell number.
For `CN1C(=O)C(NC(=O)c2nnc(Cc3ccccc3)[nH]2)Cc2cn(CCO)c3cccc1c23` (racemic) [T-33, (±)-5-benzyl-N-(6-(2-hydroxyethyl)-1-methyl-2-oxo-2,3,4,6-tetrahydro-1H-azacyclo [4,3,2-cd]indol-3-yl)-4H-1,2,4-triazole-3-carboxamide], the IC50 lay within 10 to 100 nM.

`COC(=O)c1cn2c3c(cccc13)N(C)C(=O)[C@@H](NC(=O)c1nnc(Cc3ccccc3)[nH]1)C2` [T-95, Methyl (S)-3-(5-benzyl-4H-1,2,4-triazole-3-carboxamide)-1-methyl-2-oxo-1,2,3,4-tetrahydro-[1,4] diazepine [3,2,1-hi] indole-7-carboxylate] registered an IC50 of 100 to 1000 nM.

Staying with this assay, now noted: Homo sapiens; TNF-α induced necroptosis, Jurkat FADD-deficient cells, 13 hours, CellTiter-Glo; read-out: IC50.
As for `CCOC(=O)c1cc2cccc3c2n1CC(NC(=O)c1nnc(Cc2ccccc2)[nH]1)C(=O)N3C` (racemic) [T-12, (±)-3-(5-benzyl-4H-1,2,4-triazole-3-carboxamido)-1-methyl-2-oxy-1,2,3,4-tetrahydro-[1,4] diazepino [3,2,1-hi] indole-6-carboxylate], the half-inhibitory concentration (IC50) was in the range of 100 to 1000 nM.

Turning to `COc1ncccc1-c1cn2c3c(cccc13)N(C)C(=O)C(NC(=O)c1nnc(Cc3ccccc3)[nH]1)C2` (centres unmarked) [T-78, 5-benzyl-N-(7-(2-methoxypyridin-3-yl)-1-methyl-2-oxo-1,2,3,4-tetrahydro-[1,4]diazepino[3,2,1-hi]indol-3-yl)-4H-1,2,4-triazole-3-carboxamide], the IC50 is below 10 nM.

Take `CN1C(=O)C(NC(=O)c2nnc(Cc3ccccc3)[nH]2)Cc2cn(-c3cccnc3)c3cccc1c23` (racemic) [T-101, (±)-5-benzyl-N-(1-methyl-2-oxo-6-(pyridin-3-yl)-2,3,4,6-tetrahydro-1H-azacyclo [4,3,2-cd]indol-3-yl)-4H-1,2,4-triazole-3-carboxamide]: the IC50 lay in the range of 10 to 100 nM.

As to `CN1C(=O)C(NC(=O)c2nnc(Cc3ccccc3)[nH]2)Cc2cn(-c3nccc4ccccc34)c3cccc1c23` (racemic) [T-99, (±)-5-benzyl-N-(6-(isoquinolin-1-yl)-1-methyl-2-oxo-2,3,4,6-tetrahydro-1H-aza [4,3,2-cd]indol-3-yl)-4H-1,2,4-triazole-3-carboxamide], the IC50 is below 10 nM.

As to `CC(=O)c1cccnc1-n1cc2c3c(cccc31)N(C)C(=O)C(NC(=O)c1nnc(Cc3ccccc3)[nH]1)C2` (racemic) [T-59, (±)-N-(6-(3-acetylpyridin-2-yl)-1-methyl-2-oxo-2,3,4,6-tetrahydro-1H-azacyclo [4,3,2-cd]indol-3-yl)-5-benzyl-4H-1,2,4-triazole-3-carboxamide], the IC50 is below 10 nM.

On to `CN1C(=O)C(NC(=O)c2nnc(Cc3ccccc3)[nH]2)Cc2cn(-c3ncccc3CO)c3cccc1c23` (racemic) [T-49, (±)-5-benzyl-N-(6-(3-(hydroxymethyl)pyridin-2-yl)-1-methyl-2-oxo-2,3,4,6-tetrahydro-1H-azacyclo [4,3,2-cd]indol-3-yl)-4H-1,2,4-triazole-3-carboxamide], for which the IC50 is below 10 nM.

As for `Cc1ccsc1-c1cn2c3c(cccc13)N(C)C(=O)C(NC(=O)c1nnc(Cc3ccccc3)[nH]1)C2` (racemic) [T-91, (±)-5-benzyl-N-(1-methyl-7-(3-methylthiophen-2-yl)-2-oxo-1,2,3,4-tetrahydro-[1,4]diazepine [3,2,1-hi]indol-3-yl)-4H-1,2,4-triazole-3-carboxamide], the IC50 was in the range of 10 to 100 nM.

On to `CN1C(=O)C(NC(=O)c2nnc(Cc3ccccc3)[nH]2)Cc2c[nH]c3cccc1c23` (racemic) [T-19, (±)-5-benzyl-N-(1-methyl-2-oxo-2,3,4,6-tetrahydro-1H-azacyclo [4,3,2-cd]indol-3-yl)-4H-1,2,4-triazole-3-carboxamide], for which the half-inhibitory concentration (IC50) is below 10 nM.

`CN1C(=O)C(N2CCc3c(nn(Cc4ccccc4)c3Cl)C2=O)Cn2cc(-c3ccnn3C)c3cccc1c32` (racemic) [T-89, (±)-3-(2-benzyl-3-chloro-7-oxo-2,4,5,7-tetrahydro-6H-pyrazole [3,4-c]pyridin-6-yl)-1-methyl-7-(1-methyl-1H-pyrazol-5-yl)-3,4-dihydro-[1,4]diazepine[3,2,1-hi]indole-2(1H)-one]: the IC50 lay within 10 to 100 nM.

Take `CN1C(=O)C(NC(=O)c2cc(Oc3ccccc3)ccn2)Cc2cn(-c3ncccc3C(F)(F)F)c3cccc1c23` (racemic) [T-70, (±)-N-(1-methyl-2-oxo-6-(3-(trifluoromethyl)pyridin-2-yl)-2,3,4,6-tetrahydro-1H-azacyclo[4,3,2-cd]indol-3-yl)-4-phenoxy Pyridinamide]: the IC50 is below 10 nM.

Consider `CNC(=O)c1cccnc1-n1cc2c3c(cccc31)N(C)C(=O)C(NC(=O)c1nnc(Cc3ccccc3)[nH]1)C2` (racemic) [T-56, (±)-2-(3-(5-benzyl-4H-1,2,4-triazole-3-carboxamide)-1-methyl-2-oxy-1,2,3,4-tetrahydro-6H-azacyclo [4,3,2-cd]indol-6-yl)-N-methylnicotinamide], for which the IC50 fell in the range of 10 to 100 nM.

Consider `CN1C(=O)C(NC(=O)c2nnc(Cc3ccccc3)[nH]2)Cn2cc(C#Cc3cnn(C)c3)c3cccc1c32` (racemic) [T-8, (±)-5-benzyl-N-(1-methyl-7-((1-methyl-1H-pyrazol-4-yl)ethynyl)-2-oxy-1,2,3,4-tetrahydro-[1,4]diazepino [3,2,1-hi]indol-3-yl)-4H-1,2,4-triazole-3-carboxamide], for which the IC50 is below 10 nM.

Regarding `CN1C(=O)C(NC(=O)c2nnc(Cc3ccccc3)[nH]2)Cc2cn(-c3ncccc3C(F)F)c3cccc1c23` (racemic) [T-53, (±)-5-benzyl-N-(6-(3-(difluoromethyl)pyridin-2-yl)-1-methyl-2-oxo-2,3,4,6-tetrahydro-1H-azacyclo [4,3,2-cd]indol-3-yl)-4H-1,2,4-triazole-3-carboxamide], the 50% inhibitory concentration (IC50) is below 10 nM.

In the case of `CN1C(=O)[C@@H](NC(=O)c2nnc(Cc3ccccc3)[nH]2)Cc2c[nH]c3nccc1c23` [T-71, (S)-5-benzyl-N-(6-methyl-7-oxo-6,7,8,9-tetrahydro-2H-2,3,6-triazabenzene[cd]azulene-8-yl)-4H-1,2,4-triazole-3-carboxamide], the IC50 lay within 10 to 100 nM.

Consider `COC(=O)c1cccnc1-n1cc2c3c(cccc31)N(C)C(=O)C(NC(=O)c1nnc(Cc3ccccc3)[nH]1)C2` (racemic) [T-43, (±)-2-(3-(5-benzyl-4H-1,2,4-triazole-3-carboxamide)-1-methyl-2-oxo-1,2,3,4-tetrahydro-6H-azacyclo [4,3,2-cd]indol-6-yl)nicotinate], for which the IC50 is below 10 nM.

`Cc1nn(C)cc1-c1cn2c3c(cccc13)N(C)C(=O)[C@@H](NC(=O)c1nnc(Cc3ccccc3)[nH]1)C2` [T-117, (S)-5-benzyl-N-(7-(1,3-dimethyl-1H-pyrazol-4-yl)-1-methyl-2-oxo-1,2,3,4-tetrahydro-1,4-diazepine [3,2,1-hi]indol-3-yl)-4H-1,2,4-triazole-3-carboxamide]: the IC50 was below 10 nM.

In the case of `COc1ccc(C)nc1-n1cc2c3c(cccc31)N(C)C(=O)C(NC(=O)c1nnc(Cc3ccccc3)[nH]1)C2` (racemic) [T-64, (±)-5-benzyl-N-(6-(3-methoxy-6-methylpyridin-2-yl)-1-methyl-2-oxo-2,3,4,6-tetrahydro-1H-azacyclo [4,3,2-cd]indol-3-yl)-4H-1,2,4-triazole-3-carboxamide], the 50% inhibitory concentration (IC50) was below 10 nM.

Turning to `CN1C(=O)C(NC(=O)c2nnc(Cc3ccccc3)[nH]2)Cn2cc(I)c3cccc1c32` (racemic) [T-3, (±)-5-benzyl-N-(7-iodo-1-methyl-2-oxo-1,2,3,4-tetrahydro-[1,4]diazepino [3,2,1-hi]indol-3-yl)-4H-1,2,4-triazole-3-carboxamide], the half-maximal inhibitory concentration (IC50) is 10 to 100 nM.

`CC(C)n1nccc1-c1cn2c3c(cccc13)N(C)C(=O)C(NC(=O)c1nnc(Cc3ccccc3)[nH]1)C2` (racemic) [T-90, (±)-5-benzyl-N-(7-(1-isopropyl-1H-pyrazol-5-yl)-1-methyl-2-oxo-1,2,3,4-tetrahydro-1,4-diazepine [3,2,1-hi]indol-3-yl)-4H-1,2,4-triazole-3-carboxamide]: the IC50 is below 10 nM.

Consider `CN1C(=O)C(NC(=O)c2nnc(Cc3ccccc3)[nH]2)Cc2cn(-c3ccnn3C)c3cccc1c23` (racemic) [T-36, (±)-5-benzyl-N-(1-methyl-6-(1-methyl-1H-pyrazol-5-yl)-2-oxo-2,3,4,6-tetrahydro-1H-azacyclo [4,3,2-cd]indol-3-yl)-4H-1,2,4-triazole-3-carboxamide], for which the IC50 is below 10 nM.

As to `CN1C(=O)C(NC(=O)c2nnc(Cc3ccccc3)[nH]2)Cc2cn(-c3ncccc3OC(F)(F)F)c3cccc1c23` (racemic) [T-105, (±)-5-benzyl-N-(1-methyl-2-oxo-6-(3-(trifluoromethoxy)pyridin-2-yl)-2,3,4,6-tetrahydro-1H-azacyclo [4,3,2-cd]indol-3-yl)-4H-1,2,4-triazole-3-carboxamide], the 50% inhibitory concentration (IC50) is below 10 nM.

With `CN1C(=O)C(N2CCc3c(nn(Cc4ccccc4)c3Cl)C2=O)Cc2c[nH]c3cccc1c23` (racemic) [T-32, (±)-3-(2-benzyl-3-chloro-7-oxo-2,4,5,7-tetrahydro-6H-pyrazole [3,4-c]pyridin-6-yl)-1-methyl-1,3,4,6-tetrahydro-2H-azacyclo [4,3,2-cd] indole-2-one], the concentration for half-maximal inhibition (IC50) is below 10 nM.

Consider `CN1C(=O)C(NC(=O)c2nnc(Cc3ccccc3)[nH]2)Cc2cn(-c3ncn(C)n3)c3cccc1c23` (racemic) [T-73, (±)-5-benzyl-N-(1-methyl-6-(1-methyl-1H-1,2,4-triazole-3-yl)-2-oxo-2,3,4,6-tetrahydro-1H-azacyclo [4,3,2-cd]indol-3-yl)-4H-1,2,4-triazole-3-carboxamide], for which the IC50 lay in the range of 10 to 100 nM.

Still in this assay, the particulars now being: TNF-α induced necroptosis, Jurkat FADD-deficient cells, 13 hours, CellTiter-Glo; read-out: IC50.
As to `Cc1nn(C)c(C)c1-c1cn2c3c(cccc13)N(C)C(=O)C(NC(=O)c1nnc(Cc3ccccc3)[nH]1)C2` (racemic) [T-119, (±)-5-benzyl-N-(1-methyl-2-oxo-7-(1,3,5-trimethyl-1H-pyrazol-4-yl)-1,2,3,4-tetrahydro-[1,4]diazepine [3,2,1-hi]indol-3-yl)-4H-1,2,4-triazole-3-carboxamide], the 50% inhibitory concentration (IC50) was below 10 nM.

The IC50 is the concentration needed to halve the response being measured.
